Results: patent US8618178B2, “Method and substances for treating T-cell mediated autoimmune diseases” (Eberhard-Karls-Universitaet Tuebingen Universitaetsklinikum, priority 2006, dated 2013)
“Also recorded” adds a separate entry of the source. Structures can show the parent of a compound that is named as a salt.

Tests used:
DC = assay: Colorimetric determination of cellular GSH content of DC; assay type: cell-based, mouse; details: L-BSO 0.5 mM, DMF 70 μM, MMF 200 μM
Method: Cellular GSH and GSSG were determined in micro-titer plate assays using colorimetric methods. The cellular GHS content is determined as a percentage of the GSH levels in freshly prepared controls or as pmol 10^−6 cells. GSSG was not detectable.
As antigen presenting cells (APC), T cell depleted spleen cells from syngenic mice were used. Dendritic cells (DC) which were obtained from bone marrow (BMDC) and cultured with GM-CSF were used for the relevant experiments on day 7 of culturing. For the experiment, in each case an equal number of APC were cultured either with the medium alone, with L-BSO (C8H18N2O3S, 0.5 mM), dimethyl sulfoxide DMSO(C2H6OS), dimethyl fumarate DMF (C6H8O4, dissolved in DMSO, 70 μM), or calcium monomethyl fumarate (MMF; CaC10H10O8, 200 μM). All substances except for MMF (Fumapharm) were purchased from Sigma-Aldrich. At the respective stated times (see below) the cells were either analyzed directly for their GSH content, used for T cell stimulation or stimulated for […] with Escherichia coli lipopolysaccharides 055.B5 (Sigma-Aldrich) or CpG-DNA 1668 (MWG Biotech) and IL-4 (Stratmann). […]
For the testing of the potential of pharmaceutical substances to lower the glutathione content of cells, the following procedure was carried out: cells (antigen-presenting cells or dendritic cells) are incubated with different concentrations of the given pharmaceutical substance to be tested. Then, after an incubation time of 1 hr, 2 hrs, 24 hrs or 48 hrs, the glutathione content of the cells is determined in comparison to control cells. […]
The samples and the GSH standard were diluted in a microtiter plate and the assay reaction started by addition of a reaction mix which contains glutathione reductase. […] The rise in the extinction is measured at 405 nm at 30 sec intervals over 10 mins with a microtiter plate reader. The glutathione content was determined using a calibration curve. […] The protein content was determined by the method of Lowry (see for example, Dringen, et al., “Supply by Astrocytes of CysGly as Precursor for neuronal Glutathione”, J. Neurosci 19:562-569). […]

BMDC = assay: Measurement of reactive oxygen species (ROS) in DC with dichlorofluorescein, flow cytometry; assay type: cell-based, mouse; details: dichlorofluorescein, flow cytometry
Method: For the measurement of reactive oxygen species (ROS) in DC and APC, the fluorescent dye 2′,7′ dichlorofluorescein (H2 DCFDA, Molecular Probes, Eugene, USA) was used. 5×10^5 DC were preincubated in 1 ml of RPMI medium (without mercaptoethanol) for 60 mins at 37° C. in the incubator with 1% DMSO or 10 μg/ml DMF+/−NAC (1 mM) or GSX (1 mM). After this preincubation, 1 μM/ml H2 DCFDA was added and the cells incubated for a further 30 mins at 37° C. Within one hour, the fluorescence produced was detected using flow cytometry (FL1).
As antigen presenting cells (APC), T cell depleted spleen cells from syngenic mice were used. Dendritic cells (DC) which were obtained from bone marrow (BMDC) and cultured with GM-CSF were used for the relevant experiments on day 7 of culturing. For the experiment, in each case an equal number of APC were cultured either with the medium alone, with L-BSO (C8H18N2O3S, 0.5 mM), dimethyl sulfoxide DMSO(C2H6OS), dimethyl fumarate DMF (C6H8O4, dissolved in DMSO, 70 μM), or calcium monomethyl fumarate (MMF; CaC10H10O8, 200 μM). All substances except for MMF (Fumapharm) were purchased from Sigma-Aldrich. At the respective stated times (see below) the cells were either analyzed directly for their GSH content, used for T cell stimulation or stimulated for […] with Escherichia coli lipopolysaccharides 055.B5 (Sigma-Aldrich) or CpG-DNA 1668 (MWG Biotech) and IL-4 (Stratmann). In order to raise the GSH level again, 1 mM GSH-OEt (C12H21N3O6S; Sigma-Aldrich) or 1 mM NAC (Sigma-Aldrich) was added.
For testing the potential of pharmaceutical substances to induce the ROS, the following procedure was developed: for the measurement of reactive oxygen species (ROS) in cells, the fluorescent dye 2′,7′ dichlorofluorescein (H2 DCFDA) is used. The absorption spectrum of the substance is 492-495 nm and the emission spectrum lies in the range between 517-527 nm. On induction of cell stress, e.g., by the administration of ROS-causing reagents, oxidation of the H2 DCFDA to DCFDA+H2 occurs. The fluorescence arising as a result can be detected using flow cytometry (FL1).

COC(=O)/C=C/C(=O)OC [DMF, dimethyl fumarate]
intracellular GSH content of DC (DC): depletes the intracellular glutathione level; also recorded: marked decrease | intracellular ROS in DC (BMDC): rise in ROS

CCCCS(=N)(=O)CCC(N)C(=O)O [L-BSO, L-buthionine sulfoximine]
intracellular GSH content of DC (DC): depletes the intracellular glutathione level; also recorded: marked decrease | intracellular ROS in DC (BMDC): rise in intracellular ROS

COC(=O)/C=C/C(=O)[O-].[Ca+] [MMF, calcium monomethyl fumarate]
intracellular GSH content of DC (DC): depletes the intracellular glutathione level; also recorded: marked decrease | intracellular ROS in DC (BMDC): induces ROS
